Laboratory results published in PMC10799935, “Discovery of a peripheral 5HT2A antagonist as a clinical candidate for metabolic dysfunction-associated steatohepatitis” (Nature Communications, 2024).
Where “and” joins values, the source holds several entries; their conditions need not be identical. Equal entries are not always repeated.

Tests used:
[1] = system: HFD-fed C57BL/6J mice; test: DIO mice: liver histology (H&E), NAFLD activity score (steatosis, inflammation, ballooning); type: in vivo, mouse; design: key to Steatosis (NAFLD Activity Score), individual animals / Steatosis score, group mean: steatosis score 0-3 (0 <5% to 3 >66% fat accumulation); conditions: for Ballooning (NAFLD Activity Score), individual animals / Inflammation (NAFLD Activity Score), individual animals / Steatosis (NAFLD Activity Score), individual animals / Total Activity (Total NAFLD Activity Score), individual animals: DIO C57BL/6J mice, one value per animal; for Hepatocyte ballooning score, Mean Diff. (Vehicle vs. treated): Dunnett's multiple comparisons test
Excerpt: Epididymal, inguinal, and liver were harvested, fixed in 10% (w/v) neutral buffered formalin solution (Sigma-Aldrich), and embedded in paraffin. Five-micron-thick tissue sections were deparaffinized, rehydrated, and stained with hematoxylin and eosin (H&E)[10]. The total NAFLD activity score (NAS) is a widely used measure of grading for steatosis, lobular inflammation, and ballooning. The total NAS ranges from 0-8 and is the sum of unweighted scores for steatosis (0: <5%, 1: 5 ~ 33%, 2: 33 ~ 66%, 3: >66% fat accumulation in the liver), lobular inflammation (0: no foci inflammation in x200 field, 1: <2 foci inflammation, 2: 2 ~ 4 foci inflammation, 3: >4 foci inflammation), and hepatocellular ballooning (0: none, 1: few ballooning cells, 2: prominent ballooning cells). MASH was diagnosed when NAS was >5, while non-MASH was diagnosed when NAS was <4. According to the MASH CRN scoring system, a certified pathologist determined the NAS[39]. The histological scoring was performed blindly, without knowledge of any other information.

[2] = system: HFD-fed C57BL/6J mice; test: DIO mice: blood profiling (serum cholesterol, triglyceride); type: in vivo, mouse; conditions: PO; for Blood Biochemistry CHO, individual animals / Blood Biochemistry TG, individual animals: DIO C57BL/6J mice, one value per animal; for Blood Biochemistry CHO, individual animals: serum total cholesterol; for Blood Biochemistry TG, individual animals: serum; for Serum TG levels, group mean / Serum total cholesterol levels (CHO), group mean: DIO mice
Experimental: Blood samples were obtained by cardiac puncture, and plasma was isolated. Blood profiling was performed by GC Pharma (Green Cross Corporation). Plasma TG and cholesterol were detected with an in vitro enzymatic colorimetric assay (CHOL2 and TRIGL; Roche, Germany) using a Cobas 8000 clinical analyzer with a c702 module (Roche).

[3] = system: lipogenesis-related genes; test: DIO mice: qRT-PCR of lipogenesis-related genes in liver; type: in vivo, mouse; conditions: DIO, PO, fold vs vehicle; for Fasn (Fold), Mean / Htr2a (Fold), Mean / Pparg (Fold), Mean / Srebp1c (Fold), Mean: group mean; for Fasn (Fold) / Htr2a (Fold) / Pparg (Fold) / Srebp1c (Fold): individual mouse
Experimental: Total RNA extractions from harvested tissues were performed using TRIzol according to the manufacturer’s protocol. After TURBO DNase (Invitrogen) treatment, 2 μg of total RNA was used to generate complementary DNA with a High-Capacity cDNA Reverse Transcription Kit (Thermo Fisher Scientific). Quantitative RT-PCR was performed with Fast SYBR Green Master Mix (Thermo Fisher Scientific) and a Viia 7 Real-time PCR System (Thermo Fisher Scientific) according to the manufacturer’s instructions. Gene expression was relatively quantified based on the delta-delta Ct (threshold cycle) method with the beta-actin gene as a reference gene. The sequence of primers can be found in the Supporting Information (Supplementary Table 2).

[4] = system: HFD-fed C57BL/6J mice; test: DIO mice: quantification of hepatic triglyceride; type: in vivo, mouse; conditions: PO, liver; for Hepatic TG Levels, TG, individual animals / Hepatic TG Levels, TG per protein, individual animals: DIO C57BL/6J mice, one value per animal; for Hepatic TG Levels, TG, individual animals / Hepatic TG Levels, TG, group mean: not normalised; for Hepatic TG Levels, TG per protein, group mean / Hepatic TG Levels, TG, group mean: DIO mice
Experimental: Liver tissues were homogenized in 5% NP-40 using FastPrep-24. To solubilize fat, the homogenates were heated to 95 °C for 5 min and cooled at 23 °C, and repeated. Triglyceride Reagent (Sigma-Aldrich) or DW was added and incubated at 37 °C for 30 min to hydrolyze TG into glycerol. For the colorimetric assay of hydrolyzed TG levels, samples were incubated with Free Glycerol Reagent (Sigma-Aldrich) at 37 °C for 5 min. Differences in absorbance at 540 nm between hydrolyzed or non-hydrolyzed TG were quantified using a glycerol standard (Sigma-Aldrich). […]

[5] = molecular target: 5HT2A (Homo sapiens, UniProt P28223); test: Human 5HT2A inhibition assay (FLIPR calcium 6, 5HT stimulus, stably transfected HEK293 cells); type: cell-based; design: expressed in transfected cells; host or cells: HEK293; conditions: for inhibition at 1 µM: HEK293, 1 μM, read-out: % Inhibition at 1 μM (SD)
Experimental: The derivatives were evaluated at a concentration of 1 μM for their antagonist activity on the 5HT2A receptor (Tables 1–3)[33],[34]. […] The cells were stained with 100 μL of cytosolic calcium dye using the FLIPR calcium 6 assay solution (Molecular devices, #R8190) supplemented with 2.5 mM probenecid (Sigma; P8761) and incubated for 1 h at 37 °C. After 1 h, the designated amount of the compound was treated in each well and incubated for another 1 h at 37 °C. […] Experimental conditions for the 5HT subtypes can be found in the Supporting Information (Supplementary Table 1).

[6] = DIO mice, PO, 10mpk, mean, 10 mg/kg

5HT2A, sequence (P28223 whole entry): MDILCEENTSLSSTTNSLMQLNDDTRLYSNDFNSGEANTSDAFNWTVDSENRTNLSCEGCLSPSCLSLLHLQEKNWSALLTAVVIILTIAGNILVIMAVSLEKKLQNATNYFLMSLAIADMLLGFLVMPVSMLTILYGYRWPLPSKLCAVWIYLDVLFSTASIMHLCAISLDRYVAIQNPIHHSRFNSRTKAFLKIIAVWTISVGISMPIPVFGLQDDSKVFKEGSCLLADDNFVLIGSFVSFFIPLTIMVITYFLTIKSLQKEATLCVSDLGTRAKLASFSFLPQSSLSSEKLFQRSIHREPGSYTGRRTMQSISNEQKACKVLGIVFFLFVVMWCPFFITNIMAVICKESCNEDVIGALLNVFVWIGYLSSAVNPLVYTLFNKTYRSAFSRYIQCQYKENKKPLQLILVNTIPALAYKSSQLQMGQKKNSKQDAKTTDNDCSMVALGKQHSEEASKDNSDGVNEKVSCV

## Cc1nc2n(c(=O)c1CCN1CCC(=C3c4ccc(Cl)cc4CCc4cccnc43)CC1)CCCC2O (racemic) [GM106]
[1]; PO, 5mpk, 5 mg/kg
  Ballooning (NAFLD Activity Score), individual animals: 2.00 and 1.00 and 0.00
  Inflammation (NAFLD Activity Score), individual animals: 2.00 and 1.00
  Steatosis (NAFLD Activity Score), individual animals: 3.00 and 2.00 and 1.00
  Total Activity (Total NAFLD Activity Score), individual animals: 7.00 and 5.00 and 3.00 and 6.00 and 2.00 and 4.00
[1]; PO, 10mpk, 10 mg/kg
  Ballooning (NAFLD Activity Score), individual animals: 0.00 and 1.00 and 2.00
  Inflammation (NAFLD Activity Score), individual animals: 1.00 and 2.00 and 0.00
  Steatosis (NAFLD Activity Score), individual animals: 0.00 and 1.00
  Total Activity (Total NAFLD Activity Score), individual animals: 1.00 and 3.00 and 5.00 and 0.00
[1]; DIO mice, 5mpk
  Hepatocyte ballooning score, Mean Diff. (Vehicle vs. treated): 0.2857
[1]; DIO mice, 10mpk
  Hepatocyte ballooning score, Mean Diff. (Vehicle vs. treated): 1
[1]; DIO mice, PO, 5mpk, mean, 5 mg/kg
  Steatosis score, group mean: 2.0
[1]; DIO mice, PO, 10mpk, mean
  Steatosis score, group mean: 0.5
[1]; [6]
  Hepatocyte ballooning score, group mean: 1
  Lobular inflammation score, group mean: 1.0
[2]; 5mpk, 5 mg/kg
  Blood Biochemistry CHO, individual animals: 245.45 mg/dL and 237.41 mg/dL and 246.17 mg/dL and 215.59 mg/dL and 143.17 mg/dL and 210.2 mg/dL and 246.37 mg/dL
  Blood Biochemistry TG, individual animals: 80.27 mg/dL and 61.12 mg/dL and 86.84 mg/dL and 48.55 mg/dL and 85.94 mg/dL and 70.5 mg/dL and 70.39 mg/dL
  Serum total cholesterol levels (CHO), group mean: 220.62 mg/dL
[2]; 10mpk, 10 mg/kg
  Blood Biochemistry CHO, individual animals: 190.51 mg/dL and 195.99 mg/dL and 228.58 mg/dL and 208.99 mg/dL and 197.21 mg/dL and 184.2 mg/dL
  Blood Biochemistry TG, individual animals: 45.42 mg/dL and 58.97 mg/dL and 70.76 mg/dL and 76.11 mg/dL and 81.65 mg/dL and 74.22 mg/dL
  Serum total cholesterol levels (CHO), group mean: 200.91 mg/dL
[2]; 5mpk
  Serum TG levels, group mean: 71.94 mg/dL
[2]; 10mpk
  Serum TG levels, group mean: 67.86 mg/dL
[3]; 5mpk, 7 mice
  Fasn (Fold), Mean: 0.745
  Htr2a (Fold), Mean: 0.510
  Pparg (Fold), Mean: 0.893
  Srebp1c (Fold), Mean: 0.768
[3]; 5mpk, 5 mg/kg
  Fasn (Fold): 0.6490 and 1.2211 and 0.8546 and 0.7608 and 0.3082 and 0.7010 and 0.7176
  Htr2a (Fold): 0.4721 and 0.7255 and 0.4948 and 0.4297 and 0.7599 and 0.2475 and 0.4420
  Pparg (Fold): 0.9158 and 1.2274 and 0.7611 and 0.5677 and 1.3805 and 0.7174 and 0.6847
  Srebp1c (Fold): 0.9242 and 0.7728 and 0.8708 and 0.7607 and 0.6589 and 0.3460 and 1.0400
[3]; 10mpk, 6 mice
  Fasn (Fold), Mean: 0.560
  Htr2a (Fold), Mean: 0.414
  Pparg (Fold), Mean: 1.032
  Srebp1c (Fold), Mean: 0.496
[3]; 10mpk, 10 mg/kg
  Fasn (Fold): 0.3894 and 0.5870 and 0.6740 and 0.7101 and 0.3290 and 0.6694
  Htr2a (Fold): 0.4677 and 0.2891 and 0.2762 and 0.4976 and 0.4041 and 0.5480
  Pparg (Fold): 0.7506 and 1.1267 and 1.0050 and 0.9956 and 1.2727 and 1.0412
  Srebp1c (Fold): 0.4795 and 0.5418 and 0.5388 and 0.5056 and 0.4290 and 0.4815
[4]; 5mpk, 5 mg/kg
  Hepatic TG Levels, TG, individual animals: 0.07575 mg/mL and 0.09502 mg/mL and 0.09001 mg/mL and 0.07002 mg/mL and 0.1053 mg/mL and 0.1094 mg/mL and 0.1015 mg/mL
  Hepatic TG Levels, TG per protein, individual animals: 71.5854 mg/g protein and 74.7025 mg/g protein and 51.6625 mg/g protein and 103.84 mg/g protein and 123.461 mg/g protein and 75.9936 mg/g protein and 58.3099 mg/g protein
[4]; 10mpk, 10 mg/kg
  Hepatic TG Levels, TG, individual animals: 0.06336 mg/mL and 0.0751 mg/mL and 0.08726 mg/mL and 0.101 mg/mL and 0.08773 mg/mL and 0.06215 mg/mL
  Hepatic TG Levels, TG per protein, individual animals: 41.8429 mg/g protein and 54.7941 mg/g protein and 65.6095 mg/g protein and 56.3849 mg/g protein and 74.0866 mg/g protein and 34.3504 mg/g protein
[4]; 5mpk
  Hepatic TG Levels, TG per protein, group mean: 79.94 mg/g protein
  Hepatic TG Levels, TG, group mean: 0.09 mg/mL
[4]; 10mpk
  Hepatic TG Levels, TG per protein, group mean: 54.51 mg/g protein
  Hepatic TG Levels, TG, group mean: 0.08 mg/mL

## Cc1nc2n(c(=O)c1CCN1CCC(=C3c4ccc(Cl)cc4CCc4cccnc43)CC1)CCC[C@H]2O (single isomer, unassigned) [Compound 22 g]
[5]
  IC50: 11.1 nM

## Cc1nc2n(c(=O)c1CCN1CCC(=C3c4ccccc4CCc4cccnc43)CC1)CCCC2O (stereo not drawn) [Compound 11e]
[5]
  IC50: 61 nM
  IC50 (nM): less potency than compound 11c
  inhibition at 1 µM: 89.2 ± 11%

## Cc1nc2n(c(=O)c1CCN1CCC(=C3c4ccc(Cl)cc4CCc4cccnc43)CC1)CCC[C@@H]2O (single isomer, unassigned) [22 f]
[5]
  % Inhibition at 1 μM (SD): 96.07 ± 1.87%

## O=C1Cc2cc(C(=O)CN3CCC(=C4c5ccc(Cl)cc5CCc5cccnc54)CC3)c(Cl)cc2N1 [Compound 8c]
[5]
  % Inhibition at 1 μM (SD): 73.02 ± 0.51%
  inhibition at 1 µM: 73%

## OC(CN1CCC(=C2c3ccc(Cl)cc3CCc3cccnc32)CC1)c1ccc(Br)cc1 (stereo not drawn) [Compound 9a]
[5]
  IC50: 31.9 nM
  inhibition at 1 µM: 92 ± 1.07%

## O=C1Cc2cc(C(O)CN3CCC(=C4c5ccc(Cl)cc5CCc5cccnc54)CC3)ccc2N1 (stereo not drawn) [Compound 9b]
[5]
  IC50: 21.4 nM
  inhibition at 1 µM: 92.2 ± 1.59%

## Cc1nc2n(c(=O)c1CCN1CCC(=C3c4ccc(Cl)cc4CCc4cccnc43)CC1)CCC[C@@H]2O (single isomer, unassigned) [Compound 22 f]
[5]
  IC50: 10.6 nM

## O=C1Cc2cc(C(O)CN3CCC(=C4c5ccc(Cl)cc5CCc5cccnc54)CC3)c(Cl)cc2N1 (stereo not drawn) [Compound 9c]
[5]
  IC50: 22.2 nM
  inhibition at 1 µM: 93.8 ± 3.13%

## O=C1Cc2cc(CCN3CCC(=C4c5ccc(Cl)cc5CCc5cccnc54)CC3)c(Cl)cc2N1 [Compound 11a]
[5]
  % Inhibition at 1 μM (SD): 94.47 ± 1.53%

## Cc1nc2n(c(=O)c1CCN1CCC(=C3c4ccc(Cl)cc4CCc4cccnc43)CC1)CCC[C@H]2O (single isomer, unassigned) [22 g]
[5]
  % Inhibition at 1 μM (SD): 97.17 ± 7.11%

## O=C1Cc2cc(C(=O)CN3CCC(=C4c5ccc(Cl)cc5CCc5cccnc54)CC3)ccc2N1 [Compound 8b]
[5]
  % Inhibition at 1 μM (SD): 68.34 ± 2.78%
  inhibition at 1 µM: 68%

## O=C(CN1CCC(=C2c3ccc(Cl)cc3CCc3cccnc32)CC1)c1ccc(Br)cc1 [Compound 8a]
[5]
  IC50: 81.4 nM
  inhibition at 1 µM: 83.2 ± 1.98%
